Key:
[1] = test system: H460 cells; test: Proliferation of H460 lung cancer cells; assay type: cell-based; conditions: for proliferation of H460 cells: 2 μM, ER-α36+/EGFR+ cells, FIG. 5-B
Description: (§1) A. Cell lines HBE, H1299 and H460 were cultured. Expression of EGFR, ER-α66, ER-α46, ER-α36, ER-β, GPER-1 were tested using Western blot. B. HBE cells and H460 cells were treated with 2 μM tamoxifen or 2 μM lasofoxifene. Proliferation of HBE cells and H460 cells were shown after each treatment. C. H460 cells were treated with vehicle only, or gefitinib, or lasofoxifene, or a combination of gefitinib and lasofoxifene. Proliferation of […] were shown after each treatment. D. H1299 were treated with vehicle only, or gefitinib, or lasofoxifene, or a combination of gefitinib and lasofoxifene. Proliferation of lung cancer cells was shown after each treatment.
(§2) Cells were inoculated into 24 well plates with culture medium and treated using the designated concentration of drugs. Cell number was counted using a cell counter (Count Star). The cell bio-behaviors including total cell number and movement were measured using a real-time cell monitoring system. Briefly, the image was captured at 5 min intervals for 66 h. Cell morphological parameters and the movement of each individual cell was calculated following manufacture's instruction.
(§3) We thus tested the expression of ER-α36 from lung cancer cells.

[2] = test system: HBE cells; test: Proliferation of HBE cells; assay type: cell-based; conditions: 2 μM, cells not expressing ER-α36, FIG. 5-B
Description: as §1, §2, §3

[3] = test system: MCF-7 cells; test: Inhibition of MCF-7 cell division, cells pre-cultured with or without insulin; assay type: cell-based, human; conditions: same drug compared between ER-α36 positive (insulin-free) and insulin medium cells, FIG. 3B
Description: A. MCF-7 cells were grown in insulin-free (IL-) medium for three months. Expression of ER-α66, ER-α36, ER-β and GPER were tested using Western blot. B. MCF-7 cells, after cultured in either medium with insulin or without insulin, were treated with tamoxifen or lasofoxifene. […] C. It compares IC50 (μM) of MCF-7 cells responding to tamoxifen or lasofoxifene at the condition of pre-cultured in medium without insulin. *** indicates P<0.001. D. Graph compares IC50 (μM) of MCF-7 cells responding to tamoxifen or lasofoxifene at the condition of pre-cultured in medium with insulin. * indicates P<0.05.
The transcription variant of ER-α36 lacks the AF-1 and AF2 domains. […] It was found located at plasma membrane and cytosol (Boonyaratanakornkit, V. Steroids. 2011 August; 76(9):877-84). […] Phosphorylated IRS interacts with dimer estrogen-ER complexes, which can then translocate into the nucleus and bond with ERE sequence to regulate RNA transcription through the estrogen classical nuclear pathway. […] In contrast, the expression levels of other estrogen receptors were not affected (FIG. 3A).

[4] = test system: Bcl-2 expression in MCF-7 cells; test: Bcl-2 expression in MCF-7 cells by western blotting; assay type: cell-based, human; conditions: for effect on Bcl-2 expression in medium without estrogen: MCF-7, charcoal stripped FBS, phenol red-free EMEM, vs Blank, FIG. 2B
Description: FIG. 2: Inhibition of Bcl-2 expression in MCF-7 cells by lasofoxifene in comparison with tamoxifen. A: MCF-7 cells were cultured in either EMEM medium containing 10% FBS (Normal) or 5% charcoal striped FBS (CS) for 72 hours. Western blotting assay were performed to analyze Bcl-2 expression (CS: charcoal striped). B: MCF-7 cells were cultured in EMEM medium containing insulin and 5% charcoal striped FBS for 72 hours and then treated by lasofoxifene and tamoxifen for 48 hours. Western blotting assay were performed to analyze Bcl-2 expression. C. MCF-7 were cultured in EMEM medium containing insulin and 10% FBS for 72 hours and then treated by lasofoxifene and tamoxifen for 48 hours. Western blotting assay were performed to analyze Bcl-2 expression. […] E. Statistical analysis of three repeats of part C. N=3×3.
HEK-293, MCF-7, MDA-MB-231, HBE, H1299 and H460 cells were grown following ATCC protocol. The expression level of estrogen-bound receptors was measured using western blotting. Briefly, 80-90% confluence cells were harvested and lysed in RIPA buffer or 1×PBS containing 1% triton-x-100 and protease inhibitor cocktail. Total protein concentration was measured using Bio-rad protein staining dye. Western blotting was performed following standard protocol using nitrocellulose membrane (Millipore) and Bio-rad semi-dry transfer system. The equal amount of total protein from cell lysate was loaded to SDS-PAGE for western blotting. The expression level of ER-α36 and 66, ER-β and GPER1 was measured using antibody.
Estrogen and ER complex binds to estrogen response element (ERE) in chromosome to regulate RNA transcription. Bcl-2 is a key member of anti-apoptosis family proteins. Its overexpression has been linked to many kinds of cancers in human being. […] We first assessed whether lasofoxifene inhibited Bcl-2 expression at higher efficiency compared to tamoxifen. MCF-7 cells were grown in DMEM medium containing insulin and 10% FBS or 5% charcoal striped FBS for 72 h. Cells were then treated by lasofoxifene and tamoxifen for 48 h. We confirmed previous study that the expression of Bcl-2 protein was enhanced by culture medium containing estrogen compared with that containing charcoal-stripped (CS) FBS (FIGS. 2A and B, Blank).

[5] = test system: tamoxifen-resistance MCF-7 cells; test: Proliferation of acquired tamoxifen-resistance MCF-7 cells; assay type: cell-based, human; conditions: FIG. 4B
Description: A. MCF-7 cells were treated with tamoxifen for ten months. Expression of ER-α66, ER-α46, ER-α36, GPER-1 were tested using Western blot. B. After MCF-7 cells were treated with tamoxifen for ten months, cells were treated with either 2 μM tamoxifen or 2 μM lasofoxifene. Proliferation of MCF-7 were shown under each treatment. ** indicates P<0.01.
MCF-7 cells were grown in EMEM medium containing 10% FBS, antibiotics and 0.1 μM tamoxifen for three months. And then increase tamoxifen concentration to 0.5 μM for another three months, Finally, MCF-7 cells were grown in EMEM medium containing 10% FBS, antibiotics and 1 μM tamoxifen for four months. Tamoxifen-resistance MCF-7 cells were tested by counting cell proliferation rate when cells were grown in high concentration tamoxifen.
To verify our hypothesis that overexpressed ER-α36 variant may result in acquired de novo tamoxifen-resistance, we induced MCF-7 cells using tamoxifen for ten months. We found the expression of ER-α66 was decreased ([…], top panel). In contrast, the expression level of ER-α36 was enhanced (FIG. 4A, middle panel). The expression level of GPER1 was not affected (FIG. 4A bottom panel).

[6] = target: T1, GPER1 (Homo sapiens, UniProt Q99527); test: Cytosolic Ca2+ in HEK293 cells overexpressing GPER1-EGFP (Fura-red); assay type: cell-based; conditions: HEK293 overexpressing GPER1-EGFP vs EGFP vector, FIG. 11B
T1 construct: expressed in transfected cells; host or cells: HEK293
Description: A. HEK293 cells were transfected with either GPER1-EGFP or EGFP alone.
The assays were performed as following. Briefly, cells were grown on a glass-bottomed perfusion chamber mounted on the stage of an inverted confocal microscope (Andor), and then incubated with 2 μM Fura-red AM (Molecular Probes, Eugene, Oreg., USA) for 60 min at 37° C. in normal culture media. Cells were then perfused continuously with Hanks' balanced salt solution (Sigma) containing 1.8 mM CaCl2 and 0.8 mM MgCl2, pH 7.4. […] Cells were perfused with complete culture media without phenol red, and Fura-red was excited at 572 nm. The fluorescence emitted at 657 nm was then collected and recorded using a CCD-based imaging system running software (Andor).

[7] = test system: H1299 cells; test: Proliferation of H1299 lung cancer cells; assay type: cell-based
Description: as §1, §2, §3

[8] = test system: MDA-MB231 breast cancer cells; test: Proliferation of triple negative MDA-MB231 breast cancer cells; assay type: cell-based; conditions: ER-α36 positive MDA-MB231, DMEM 10% FBS, FIG. 9
Text: MDA-MB231 cells treated with lasofoxifene in DMEM medium containing 10% FBS. N=3×3; * and ** mean P<0.05 and P<0.01, respectively.

[9] = test system: gastric cancer cells; test: Gastric cancer cell division; assay type: cell-based; conditions: ER-α36 positive gastric cancer cells, FIG. 8-D
Text: (§4) A: ER-α36 was positively expressed in colon cancer cells. […] NCC: normal colon cells. CCC: colon cancer cells. C: ER-α36 was positively expressed in gastric cancer cells. […] NGC: normal gastric cells. GCC: gastric cancer cells. N=3×3; *** means P<0.001.

[10] = test system: colon cancer cells; test: Colon cancer cell division; assay type: cell-based; conditions: ER-α36 positive colon cancer cells, FIG. 8-B
Text: as §4

[11] = target: T2, ER-α (Homo sapiens, UniProt P03372); conditions: cited from earlier work
T2 sequence (P03372 311-547 limits assumed): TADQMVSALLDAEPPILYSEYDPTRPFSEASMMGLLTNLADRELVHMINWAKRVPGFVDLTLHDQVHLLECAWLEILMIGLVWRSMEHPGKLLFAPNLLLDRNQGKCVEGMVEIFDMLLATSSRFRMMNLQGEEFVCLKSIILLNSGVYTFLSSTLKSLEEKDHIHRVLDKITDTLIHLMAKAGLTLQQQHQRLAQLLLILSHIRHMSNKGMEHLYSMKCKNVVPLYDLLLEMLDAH

[12] = test system: BT474 breast cancer cells; test: Proliferation of Herceptin-resistance BT474 breast cancer cells; assay type: cell-based; conditions: cells treated with 10 μg/ml Herceptin 3 months; 2 μM lasofoxifene, FIG. 10B
Description: BT474 breast cancer cells were treated with 10 μg/ml Herceptin® in medium for 3 months. A. Cells positively expressed of ER-α36, and decreased the expression level of HER2.

[13] = test system: xenograft H460 tumors; test: Growth of xenograft H460 tumors in nude mice; assay type: in vivo; conditions: intragastric daily for 2-3 weeks, FIG. 7
Description: FIG. 7: Activity to Inhibition of growth of xenograft-ER-α36+/EGFR+ lung tumor (H460) in nude mice by lasofoxifene (LAS) and/or gefitinib. A. Nude mice were grafted with H460 cells. Tumor size were shown after treatment with gefitinib, 3 mg lasofoxifene per kilogram of mouse body mass (3 mg/kg, Las3.0), 1.5 mg lasofoxifene per kilogram of mouse body mass (1.5 mg/kg, Las1.5), 0.75 mg lasofoxifene per kilogram of mouse body mass (0.75 mg/kg, Las0.75), or a combination of gefitinib and 1.5 mg lasofoxifene per kilogram of mouse body mass (Gef+Las1.5). B. Statistical result of tumor mass from two repeat experiments (n≥6).* and ** mean P<0.05 and P<0.01, respectively.
H460 cells were grown in RPMI-1640 medium containing 10% FBS. When cells are 70-80% confluent and ready for experiments, replace medium with fresh medium for 3 hours. Remove medium and wash cells with medium without FBS for three times. Cells were then trypsinized and suspended in medium, equal volume of cells and support gel was mixed up to 200 μl for each injection. Cells were injected subcutaneously (s.c.) into 4-6 week old nude mice. 1.0˜2.0×10^6 H460 cells were administrated into each nude mouse. […] Tumor size were calculated by the formula: volume=(width)^2×length/2.
To verify in vitro results, we constructed xenograft H460 tumors in nude mice. The tumor size was measured using digital vernier caliper. […]

[14] = target: ER-β (Homo sapiens, UniProt Q92731); conditions: higher affinity than raloxifene and tamoxifen; Gennari 2006; cited from earlier work
Sequence of ER-β (Q92731 whole entry, species assumed): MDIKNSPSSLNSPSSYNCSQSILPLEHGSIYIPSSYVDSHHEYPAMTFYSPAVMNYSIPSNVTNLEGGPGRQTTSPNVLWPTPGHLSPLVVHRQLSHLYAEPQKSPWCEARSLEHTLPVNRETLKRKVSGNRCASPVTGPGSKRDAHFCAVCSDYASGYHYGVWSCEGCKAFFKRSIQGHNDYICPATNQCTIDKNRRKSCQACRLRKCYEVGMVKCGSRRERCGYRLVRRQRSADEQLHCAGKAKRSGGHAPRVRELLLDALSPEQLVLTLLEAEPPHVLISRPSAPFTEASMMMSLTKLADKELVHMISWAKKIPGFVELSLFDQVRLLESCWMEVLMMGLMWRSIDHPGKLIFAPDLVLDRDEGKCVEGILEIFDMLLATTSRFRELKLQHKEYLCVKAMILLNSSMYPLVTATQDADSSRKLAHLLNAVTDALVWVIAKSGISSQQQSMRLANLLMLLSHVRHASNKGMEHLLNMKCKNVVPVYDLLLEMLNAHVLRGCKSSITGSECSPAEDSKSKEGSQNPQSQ

T1 sequence (Q99527 whole entry, species assumed): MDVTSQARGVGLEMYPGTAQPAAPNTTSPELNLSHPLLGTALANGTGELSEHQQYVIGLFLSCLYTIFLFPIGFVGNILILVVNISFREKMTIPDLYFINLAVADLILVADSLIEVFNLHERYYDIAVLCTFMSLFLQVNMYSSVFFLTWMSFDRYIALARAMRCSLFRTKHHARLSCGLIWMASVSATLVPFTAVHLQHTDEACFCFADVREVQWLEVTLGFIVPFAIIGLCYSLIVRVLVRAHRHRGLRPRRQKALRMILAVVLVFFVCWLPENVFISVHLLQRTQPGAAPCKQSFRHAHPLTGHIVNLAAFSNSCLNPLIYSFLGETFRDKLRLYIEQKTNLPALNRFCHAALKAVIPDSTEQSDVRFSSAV

CC/C(=C(\c1ccccc1)c1ccc(OCCN(C)C)cc1)c1ccccc1 [tamoxifen]
proliferation of H460 cells [1]: exhibited opposite effect
proliferation of HBE cells [2]: Neither tamoxifen nor lasofoxifene affected the proliferation of HBE cells
inhibition of MCF-7 cell division, without vs with insulin (IC50 comparison) [3]: exerted the opposite effect
effect on Bcl-2 expression in medium without estrogen ([4]; treated 48 h): neither tamoxifen nor lasofoxifene affected Bcl-2 expression
inhibiting activity on proliferation ([5]; 2 μM, MCF-7 induced by tamoxifen for over 10 months): did not inhibit MCF-7 cell proliferation

O=C(c1ccc(OCCN2CCCCC2)cc1)c1c(-c2ccc(O)cc2)sc2cc(O)ccc12 [raloxifene]
cytosolic [Ca2+]i [6]: significantly enhanced cytosolic [Ca^2+]i

Oc1ccc2c(c1)CC[C@H](c1ccccc1)[C@@H]2c1ccc(OCCN2CCCC2)cc1 [lasofoxifene, (−)-cis-(5R,6S)-6-phenyl-5-[4-(2-pyrrolidin-1-ylethoxy)phenyl]-5,6,7,8-tetrahydronaphthalen-2-ol]
proliferation of H460 cells [1]: inhibited
proliferation of H1299 cells ([7]; 2 μM, ER-α36 high, weak EGFR, FIG. 5-D): inhibited
proliferation of HBE cells [2]: Neither tamoxifen nor lasofoxifene affected the proliferation of HBE cells
inhibition of MCF-7 cell division, without vs with insulin (IC50 comparison) [3]: more effectively inhibited divisions of MCF-7 cell which positively expressed ER-α36
proliferation of triple negative breast cancer cells [8]: the same lasofoxifene activity was also found
gastric cancer cell division [9]: inhibited gastric cancer cell division
cytosolic [Ca2+]i [6]: significantly enhanced cytosolic [Ca^2+]i
effect on Bcl-2 expression in medium without estrogen ([4]; treated 48 h): neither tamoxifen nor lasofoxifene affected Bcl-2 expression
inhibition of Bcl-2 expression ([4]; MCF-7, medium with insulin and 10% FBS 72 h, treated 48 h, 2.5 μM LAS vs 2.5 μM TAM, FIG. 2C): weaker activity to inhibit Bcl-2 expression compared with tamoxifen
dose dependence of Bcl-2 expression inhibition ([4]; MCF-7, medium with insulin and 10% FBS, 48 h, FIG. 2D): inhibited Bcl-2 expression in a dosage dependent manner
colon cancer cell division [10]: inhibited colon cancer cell division
affinity for ER-α relative to those reported for raloxifene and tamoxifen ([11]; higher affinity than raloxifene and tamoxifen, Gennari 2006): at least 10 fold
binding affinity to ER-αLBD ([11]; reported value): 1.5 nM
proliferation of Herceptin-resistance BT474 cells [12]: Sensitive response
inhibition at 2 µM ([5]; Homo sapiens, MCF7, MCF-7 induced by tamoxifen for over 10 months, read-out: inhibiting activity on proliferation): > 50%
growth of xenograft H460 tumors [13]: inhibited the growth of xenograft H460 tumors
affinity for ER-β relative to those reported for raloxifene and tamoxifen [14]: at least 10 fold

COc1cc2ncnc(Nc3ccc(F)c(Cl)c3)c2cc1OCCCN1CCOCC1 [gefitinib]
proliferation of H460 cells, gefitinib alone or combined ([1]; concentration not given, FIG. 5C): inhibited the proliferation of H460
proliferation of H1299 cells, gefitinib alone or combined ([7]; concentration not given, FIG. 5D): did not inhibit H1299 cell proliferation

Reference: patent US10624874B2, “Lasofoxifene modulation of membrane-initiated estrogen signals and methods for tumor treatment” (Zhejiang Jiachi Development Pharmaceuticals LTD, priority 2017, dated 2020)
